ChEMBL document CHEMBL1201862, “PubChem BioAssay data set” (2004)
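Values below derive from 48-hour exposures of cells grown in 96-well plates, with endpoints linearly interpolated between the two concentrations bracketing the appropriate inhibition level. Here, GI50 denotes the concentration required for 50% inhibition of growth.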 Active and inactive are the calls of the source. Rule as the data show it: active = GI50 up to about 1.1 µM and inactive = higher.

Legend:
Test in all cases: NCI anticancer screen, dose series, 48 h
786-0 = system: 786-0
A498 = system: A498
A549 = system: A549
ACHN = system: ACHN
BT-549 = system: BT-549
CAKI-1 = system: CAKI-1
CCRF-CEM = system: CCRF-CEM
COLO 205 = system: COLO 205
DU-145 = system: DU-145
EKVX = system: EKVX
HCC 2998 = system: HCC 2998
HCT-116 = system: HCT-116
HCT-15 = system: HCT-15
HL-60 = system: HL-60
HOP-62 = system: HOP-62
HT-29 = system: HT-29
Hs-578T = system: Hs-578T
IGROV-1 = system: IGROV-1
KM12 = system: KM12
LOX IMVI = system: LOX IMVI
M14 = system: M14
MCF7 = system: MCF7
MDA-MB-231 = system: MDA-MB-231
MDA-MB-435 = system: MDA-MB-435
MDA-N = system: MDA-N
MOLT-4 = system: MOLT-4
Malme-3M = system: Malme-3M
NCI-H226 = system: NCI-H226
NCI-H23 = system: NCI-H23
NCI-H460 = system: NCI-H460
NCI-H522 = system: NCI-H522
NCI/ADR-RES = system: NCI/ADR-RES
OVCAR-3 = system: OVCAR-3
OVCAR-4 = system: OVCAR-4
OVCAR-5 = system: OVCAR-5
OVCAR-8 = system: OVCAR-8
PC-3 = system: PC-3
RPMI-8226 = system: RPMI-8226
RXF 393 = system: RXF 393
SF-268 = system: SF-268
SF-295 = system: SF-295
SF-539 = system: SF-539
SK-MEL-28 = system: SK-MEL-28
SK-MEL-2 = system: SK-MEL-2
SK-MEL-5 = system: SK-MEL-5
SK-OV-3 = system: SK-OV-3
SN12C = system: SN12C
SNB-75 = system: SNB-75
SW-620 = system: SW-620
T47D = system: T47D
TK-10 = system: TK-10
U-251 = system: U-251
UACC-257 = system: UACC-257
UACC-62 = system: UACC-62
UO-31 = system: UO-31

Measured: GI50

O=C(NCCCNCCCCNCCCNC(=O)C(F)(F)F)C(F)(F)F
active: MOLT-4 0.359 µM
> 100 µM: HCT-15
inactive: 786-0 > 100 µM | A498 > 100 µM | A549 > 100 µM | ACHN > 100 µM | BT-549 > 100 µM | CAKI-1 20 µM | CCRF-CEM > 100 µM | COLO 205 > 100 µM | DU-145 > 100 µM | EKVX > 100 µM | HCC 2998 76.4 µM | HCT-116 > 100 µM | HL-60 46.1 µM | HOP-62 > 100 µM | HT-29 > 100 µM | Hs-578T > 100 µM | IGROV-1 > 100 µM | KM12 > 100 µM | LOX IMVI > 100 µM | M14 > 100 µM | MCF7 > 100 µM | MDA-MB-231 > 100 µM | MDA-MB-435 > 100 µM | MDA-N > 100 µM | Malme-3M > 100 µM | NCI-H226 > 100 µM | NCI-H23 > 100 µM | NCI-H460 > 100 µM | NCI-H522 > 100 µM | NCI/ADR-RES > 100 µM | OVCAR-3 > 100 µM | OVCAR-4 > 100 µM | OVCAR-5 > 100 µM | OVCAR-8 > 100 µM | PC-3 > 100 µM | RPMI-8226 > 100 µM | RXF 393 > 100 µM | SF-268 > 100 µM | SF-295 > 100 µM | SF-539 > 100 µM | SK-MEL-28 > 100 µM | SK-MEL-2 > 100 µM | SK-MEL-5 > 100 µM | SK-OV-3 > 100 µM | SN12C 52.6 µM | SNB-75 > 100 µM | SW-620 54.8 µM | T47D > 100 µM | TK-10 > 100 µM | U-251 > 100 µM | UACC-257 > 100 µM | UACC-62 > 100 µM | UO-31 > 100 µM
